Test results: publication PMC10365998, “An ATP-sensitive phosphoketolase regulates carbon fixation in cyanobacteria” (Nature Metabolism, 2023)

Tests used:
SeXPK [1] = target: T1, SeXPK (Synechococcus elongatus, UniProt Q31LF9); experiment: cryo-EM structure; type: binding; conditions: 2 mM AMPPNP; allosteric site at dimer interface, two per dimer, no Mg2+ bound; TPP/Mg2+ present
T1 construct: gene Synpcc7942_2080; N-terminal 6His tag, pDC vector, E. coli; dodecamer of six dimers; purified with TPP/Mg2+
T1 sequence (Q31LF9 1-796): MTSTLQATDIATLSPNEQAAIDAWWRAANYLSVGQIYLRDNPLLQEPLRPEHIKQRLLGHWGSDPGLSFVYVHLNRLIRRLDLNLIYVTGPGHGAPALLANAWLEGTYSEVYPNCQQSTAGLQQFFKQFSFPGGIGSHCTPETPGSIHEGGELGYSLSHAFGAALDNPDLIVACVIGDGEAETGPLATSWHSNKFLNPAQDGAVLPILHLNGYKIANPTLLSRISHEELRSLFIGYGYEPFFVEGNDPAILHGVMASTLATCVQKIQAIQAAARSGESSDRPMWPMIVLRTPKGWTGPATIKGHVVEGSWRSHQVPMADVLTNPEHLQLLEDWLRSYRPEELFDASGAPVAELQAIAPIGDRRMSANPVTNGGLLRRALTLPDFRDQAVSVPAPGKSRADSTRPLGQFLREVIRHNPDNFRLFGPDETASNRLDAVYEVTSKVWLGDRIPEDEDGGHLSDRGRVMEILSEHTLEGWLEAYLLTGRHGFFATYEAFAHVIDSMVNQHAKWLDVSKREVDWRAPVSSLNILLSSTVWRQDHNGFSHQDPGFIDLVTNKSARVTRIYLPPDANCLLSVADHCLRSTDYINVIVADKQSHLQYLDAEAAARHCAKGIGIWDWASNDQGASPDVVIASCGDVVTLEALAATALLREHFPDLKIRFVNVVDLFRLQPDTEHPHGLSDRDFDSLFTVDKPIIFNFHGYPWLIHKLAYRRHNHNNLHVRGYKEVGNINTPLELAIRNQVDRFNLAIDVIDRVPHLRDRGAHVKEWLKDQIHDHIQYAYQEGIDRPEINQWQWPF

[2] = target: T2, Methylomonas sp. XPK (MeXPK) (Methylomonas sp. DH-1, UniProt A0A172UD65); experiment: acetyl phosphate formation, hydroxamate colorimetric assay; type: biochemical; conditions: F6P varied, 30 mM phosphate, pH 6.4, 1 mM TPP, 1 mM MgCl2; allosteric
T2 construct: same plasmid as SeXPK (N-terminal 6His tag), expressed in E. coli and purified
T2 sequence (A0A172UD65 1-788): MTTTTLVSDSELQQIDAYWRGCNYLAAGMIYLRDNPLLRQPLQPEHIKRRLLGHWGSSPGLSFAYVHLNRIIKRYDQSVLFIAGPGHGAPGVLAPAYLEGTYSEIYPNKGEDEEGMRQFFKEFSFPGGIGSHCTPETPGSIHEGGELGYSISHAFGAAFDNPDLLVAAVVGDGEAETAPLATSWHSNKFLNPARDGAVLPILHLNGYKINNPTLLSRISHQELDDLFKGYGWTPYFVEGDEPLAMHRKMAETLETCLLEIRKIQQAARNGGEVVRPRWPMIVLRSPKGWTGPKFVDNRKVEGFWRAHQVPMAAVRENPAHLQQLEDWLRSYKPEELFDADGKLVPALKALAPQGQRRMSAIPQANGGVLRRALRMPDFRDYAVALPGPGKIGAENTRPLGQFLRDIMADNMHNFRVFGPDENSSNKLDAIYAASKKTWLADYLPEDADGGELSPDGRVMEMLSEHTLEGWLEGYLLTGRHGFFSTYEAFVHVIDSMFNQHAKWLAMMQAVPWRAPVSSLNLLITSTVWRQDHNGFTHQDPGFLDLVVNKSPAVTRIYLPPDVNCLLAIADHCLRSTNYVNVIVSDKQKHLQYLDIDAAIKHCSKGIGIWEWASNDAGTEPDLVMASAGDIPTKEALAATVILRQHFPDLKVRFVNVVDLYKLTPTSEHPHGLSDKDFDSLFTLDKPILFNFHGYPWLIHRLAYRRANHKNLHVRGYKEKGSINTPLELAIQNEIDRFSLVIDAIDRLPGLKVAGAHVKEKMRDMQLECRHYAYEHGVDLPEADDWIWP
Excerpt: acetyl phosphate formation, hydroxamate colorimetric assay on Methylomonas sp.

SeXPK [3] = target: T1, SeXPK; experiment: as above; type: biochemical; conditions: F6P varied, 30 mM phosphate, pH 6.4, 1 mM TPP, 1 mM MgCl2; allosteric
SeXPK [4] = target: T3, SeXPK (Synechococcus elongatus, UniProt Q31LF9, H706R); experiment: as above; type: biochemical; conditions: 30 mM phosphate, pH 6.4, 1 mM TPP, 1 mM MgCl2; no ATP
T3 construct: gene Synpcc7942_2080; N-terminal 6His tag, pDC vector, E. coli; dodecamer of six dimers; purified with TPP/Mg2+

SeXPK [5] = target: T4, SeXPK (Synechococcus elongatus, UniProt Q31LF9, Y710A); experiment: as above; type: biochemical; conditions: 30 mM phosphate, pH 6.4, 1 mM TPP, 1 mM MgCl2; no ATP
T4 construct: gene Synpcc7942_2080; N-terminal 6His tag, pDC vector, E. coli; dodecamer of six dimers; purified with TPP/Mg2+

[6] = target: T2, Methylomonas sp. XPK (MeXPK); experiment: as above; type: biochemical; conditions: 30 mM phosphate, pH 6.4, 1 mM TPP, 1 mM MgCl2; no ATP
Excerpt: acetyl phosphate formation, hydroxamate colorimetric assay on Methylomonas sp. XPK (MeXPK) | Methylomonas sp.

SeXPK [7] = target: T5, SeXPK (Synechococcus elongatus, UniProt Q31LF9, H706A); experiment: as above; type: biochemical; conditions: 30 mM phosphate, pH 6.4, 1 mM TPP, 1 mM MgCl2; no ATP; most activity lost
T5 construct: gene Synpcc7942_2080; N-terminal 6His tag, pDC vector, E. coli; dodecamer of six dimers; purified with TPP/Mg2+

[8] = target: Bifidobacterium longum phosphoketolase (B. longum XPK) (B. longum); experiment: cryo-EM structure; purified B. longum XPK with TPP/Mg2+, free form; D4 symmetry, focused refinement of one dimer
[9] = target: the molecule itself; experiment: cryo-EM structure; purified SeXPK ~0.4 mg/ml (2.2 µM of dimer) in 20 mM HEPES-NaOH pH 7.2, 0.1 M NaCl, 0.2 mM TPP, 1 mM MgCl2; free and with 2 mM AMPPNP; D6 symmetry, focused refinement of one dimer

T3 sequence (Q31LF9 whole entry H706R): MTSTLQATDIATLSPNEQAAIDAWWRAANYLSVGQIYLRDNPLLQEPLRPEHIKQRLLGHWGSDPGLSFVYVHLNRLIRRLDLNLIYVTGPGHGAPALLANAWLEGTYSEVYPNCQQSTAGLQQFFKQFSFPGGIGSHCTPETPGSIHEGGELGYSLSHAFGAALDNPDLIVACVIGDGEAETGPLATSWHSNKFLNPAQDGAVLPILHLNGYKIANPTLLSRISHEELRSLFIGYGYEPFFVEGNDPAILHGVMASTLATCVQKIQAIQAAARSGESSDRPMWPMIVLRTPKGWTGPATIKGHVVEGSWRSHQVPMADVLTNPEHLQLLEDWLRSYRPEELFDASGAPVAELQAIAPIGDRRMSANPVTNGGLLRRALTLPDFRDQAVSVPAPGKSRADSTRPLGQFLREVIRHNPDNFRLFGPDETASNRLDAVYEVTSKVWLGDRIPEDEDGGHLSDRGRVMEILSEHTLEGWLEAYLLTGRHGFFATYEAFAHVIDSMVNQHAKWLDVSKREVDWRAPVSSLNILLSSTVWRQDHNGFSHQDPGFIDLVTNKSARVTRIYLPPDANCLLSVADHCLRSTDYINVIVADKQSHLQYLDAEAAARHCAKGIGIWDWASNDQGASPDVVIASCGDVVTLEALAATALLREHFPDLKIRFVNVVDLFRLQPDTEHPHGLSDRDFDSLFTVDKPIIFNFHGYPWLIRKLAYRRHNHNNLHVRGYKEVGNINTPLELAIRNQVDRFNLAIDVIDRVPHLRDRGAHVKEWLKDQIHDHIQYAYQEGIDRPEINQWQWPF
T4 sequence (Q31LF9 whole entry Y710A): as the sequence (Q31LF9 whole entry H706R) above, with R706H, Y710A counted along it
T5 sequence (Q31LF9 whole entry H706A): as the sequence (Q31LF9 whole entry H706R) above, with R706A counted along it

Nc1ncnc2c1ncn2[C@@H]1O[C@H](COP(=O)(O)OP(=O)(O)NP(=O)(O)O)[C@@H](O)[C@H]1O [AMPPNP, phosphoaminophosphonic acid adenylate ester]
cryo-EM structure (SeXPK [1]): the two subunits jointly bind two AMPPNP

Nc1ncnc2c1ncn2[C@@H]1O[C@H](COP(=O)(O)OP(=O)(O)OP(=O)(O)O)[C@@H](O)[C@H]1O [ATP, adenosine-5′-triphosphate]
inhibition [2]: its allosteric inhibition by ATP was validated based on steady-state kinetics | inhibition at 0.5, 1 or 2 mM (SeXPK [3]): SeXPK is inhibited in vitro by ATP through an allosteric mode

O=P(O)(O)OC[C@H]1OC(O)(CO)[C@@H](O)[C@@H]1O (stereo partly drawn) [F6P]
ATP sensitivity of activity (SeXPK [4]): H706R mutant of SeXPK shows only minor effect by ATP | acetyl phosphate formation, hydroxamate colorimetric assay (SeXPK [5]): Y710A mutant of SeXPK lost most activity | Km [6]: Methylomonas sp. XPK (MeXPK) is also inhibited by ATP | acetyl phosphate formation, hydroxamate colorimetric assay (SeXPK [7]): H706A mutant of SeXPK lost most activity

Bifidobacterium longum phosphoketolase (B. longum XPK) (enzyme)
stoichiometry N [8]: 8

B1: Synechococcus elongatus PCC7942 phosphoketolase (SeXPK) (enzyme)
chain: T1 sequence (Q31LF9 1-796)
notes: phosphoketolase (XPK) of Synechococcus elongatus PCC7942, locus Synpcc7942_2080; Carries the coenzyme TPP/Mg2+; studied free and with 2 mM AMPPNP; Dodecamer of six dimers by cryo-EM; also called S. elongatus PCC7942 XPK; Synpcc7942_2080; source: E. coli DH5αDE3.1, purified (His-Tag resin, Q Sepharose, Superdex 200); copies: 12
stoichiometry N [9]: 12
